“Also recorded” adds a separate entry of the source.
What was measured:
[1] = tested on: WI-38 cell line (normal human lung fibroblasts); assay: MTT cytotoxicity against normal cells WI-38; format: cell-based; conditions: normal human lung fibroblasts WI-38
Method: The cytotoxicity values of the synthesized compounds against the WI-38 cell line (normal human lung fibroblasts) were also evaluated in vitro.
(§1) The antiproliferative activity of the synthesized compounds was evaluated using MTT protocol as described (Supplementary data (available here)).

[2] = tested on: HCT-116; assay: MTT antiproliferative assay, HCT-116; format: cell-based; conditions: Homo sapiens, colorectal carcinoma HCT-116
Method: (§2) The in vitro antiproliferative activities of the newly synthesized compounds were evaluated against a panel of three human tumor cell lines, namely, breast cancer (MCF-7), hepatocellular carcinoma (HepG-2), and colorectal carcinoma (HCT-116) using the standard MTT method. The tested cell lines were selected depending on their VEGF overexpression. Sorafenib, the lead drug, was coassayed as a positive control.
as §1

[3] = tested on: MCF-7; assay: MTT antiproliferative assay, MCF-7; format: cell-based; conditions: Homo sapiens, MCF7, breast cancer MCF-7
Method: as §2, §1

[4] = tested on: Bcl-2; assay: Bcl-2 level in HepG-2 cells; format: cell-based, human; conditions: for Bcl-2 Conc.: HepG-2 cells treated with compound; for Bcl-2 Fold: HepG-2 cells, versus control
Source text: (§3) (2) Effects on Bcl-2 Family Proteins. The Bcl-2 family proteins are vital regulators of apoptosis cell death. Members of this family include the proapoptotic factor Bax which promotes cell death and the prosurvival (antiapoptotic) Bcl-2 which suppresses cell death. […] Results are expressed in Table 3.
(§4) (2) Effects on Bcl-2 Family Proteins. […] (Supplementary data).

[5] = tested on: MCF-7, HepG-2, and HCT-116; assay: MTT antiproliferative assay, panel of three tumor cell lines (range over lines); format: cell-based; conditions: Homo sapiens, range over the three cancer cell lines, read-out: cytotoxic IC50, range over MCF-7, HepG-2 and HCT-116
Method: as §2, §1

[6] = tested on: caspase-3; assay: Active caspase-3 level in HepG-2 cells; format: cell-based, human; conditions: for Caspase 3 Conc.: HepG-2 cells treated with compound; for Caspase 3 Fold: HepG-2 cells, versus control
Source text: (1) Effects on the Levels of Active Caspase-3. A significant mechanism by which anticancer agents can affect cancer cells is apoptosis. Apoptosis is a process of automated cell death. The apoptosis mechanism is typically mediated by a group of proteases called caspases. Caspase-3 is activated in every mammalian cell type provoking the cell to die, considered one of the apoptosis marks.
(1) Effects on the Levels of Active Caspase-3. […] (Supplementary data).

[7] = tested on: HepG-2; assay: MTT antiproliferative assay, HepG-2; format: cell-based; conditions: Homo sapiens, HepG2, hepatocellular carcinoma HepG-2
Method: as §2, §1

[8] = tested on: TNF-α; assay: TNF-α in HepG-2 supernatant (ELISA); format: cell-based, human
Source text: (1) Estimation of Human Tumor Necrosis Factor Alpha (TNF-α) in HepG-2 Supernatant. […] Celecoxib, a potent inhibitor of TNF-α-induced cytokine expressions, was used as a positive control. […] Among the tested compounds, compound 7a caused a remarkably significant reduction in TNF-α levels (87%) in comparison to celecoxib (86%).
The levels of TNF-α in cell culture supernatants were estimated by the ELISA technique according to the reported procedure.

[9] = target: VEGFR-2 (Homo sapiens, UniProt P35968); assay: In vitro VEGFR-2 enzyme inhibition assay; format: biochemical; conditions: read-out: IC50 against VEGFR-2
[10] = tested on: BAX; assay: BAX level in HepG-2 cells; format: cell-based, human; conditions: for BAX Conc.: HepG-2 cells treated with compound; for BAX Fold: HepG-2 cells, versus control
Source text: as §3, §4

[11] = tested on: vascular smooth muscle cells (VSMCs); assay: Vascular smooth muscle cell proliferation; format: cell-based; conditions: 2.5, 5, and 10 μM, 48 h
Method: In order to examine its effect on the proliferation of vascular smooth muscle cells (VSMCs), VSMCs were treated with increasing concentrations of compound 7a (2.5, 5, and 10 μM) for 48 h. The cellular proliferation results are illustrated in Figure 9.
VSMCs were isolated and cultured following the reported method (Supplementary data).

[12] = tested on: VEGFR-2 protein expression; assay: Western blot of VEGFR-2 protein expression; format: cell-based, human; conditions: HepG-2 cells, 10 h exposure, versus blank
Source text: (4) Effect of Compound 7a on VEGFR-2 Protein Expression.

[13] = tested on: HepG-2 cells; assay: Annexin V-FITC/PI apoptosis assay; format: cell-based, human; conditions: HepG-2, IC50 dose (2.17 μM), 24 h
Method: (5) Apoptotic Cell Subpopulation Determination. To support the fact that derivative 7a induces apoptosis in the HepG-2 cancer cell line, annexin V-FITC and PI double-staining assay protocol was used. […] This is evidence that the antiproliferative activities are associated with a proapoptotic effect of the tested compound.
(4) Apoptotic Cell Subpopulation Determination. The annexin-V-FITC assay for compound 7a on HepG-2 cells was performed according to the reported procedure (Supplementary data).

[14] = tested on: HepG-2 cells; assay: Cell cycle analysis by flow cytometry; format: cell-based, human; conditions: HepG-2, compound at its IC50 concentration
Method: (3) Cell Cycle Analysis. For further investigation of the apoptotic capacity of compound 7a, flow cytometric analysis was carried out on the HepG-2 cancer cell line treated with the tested compound at its IC50 concentrations using untreated HepG-2 cancer cells as a negative control. […] Accumulation of cells at the G2-M phase for 7a was estimated to be 46.74% versus 23.11% accumulation for control HepG-2 cells.
(3) Cell Cycle Analysis. According to the method described by Léonce et al., the flow cytometric analysis for compound 7a was performed (Supplementary data).

VEGFR-2, sequence (P35968 20-1356): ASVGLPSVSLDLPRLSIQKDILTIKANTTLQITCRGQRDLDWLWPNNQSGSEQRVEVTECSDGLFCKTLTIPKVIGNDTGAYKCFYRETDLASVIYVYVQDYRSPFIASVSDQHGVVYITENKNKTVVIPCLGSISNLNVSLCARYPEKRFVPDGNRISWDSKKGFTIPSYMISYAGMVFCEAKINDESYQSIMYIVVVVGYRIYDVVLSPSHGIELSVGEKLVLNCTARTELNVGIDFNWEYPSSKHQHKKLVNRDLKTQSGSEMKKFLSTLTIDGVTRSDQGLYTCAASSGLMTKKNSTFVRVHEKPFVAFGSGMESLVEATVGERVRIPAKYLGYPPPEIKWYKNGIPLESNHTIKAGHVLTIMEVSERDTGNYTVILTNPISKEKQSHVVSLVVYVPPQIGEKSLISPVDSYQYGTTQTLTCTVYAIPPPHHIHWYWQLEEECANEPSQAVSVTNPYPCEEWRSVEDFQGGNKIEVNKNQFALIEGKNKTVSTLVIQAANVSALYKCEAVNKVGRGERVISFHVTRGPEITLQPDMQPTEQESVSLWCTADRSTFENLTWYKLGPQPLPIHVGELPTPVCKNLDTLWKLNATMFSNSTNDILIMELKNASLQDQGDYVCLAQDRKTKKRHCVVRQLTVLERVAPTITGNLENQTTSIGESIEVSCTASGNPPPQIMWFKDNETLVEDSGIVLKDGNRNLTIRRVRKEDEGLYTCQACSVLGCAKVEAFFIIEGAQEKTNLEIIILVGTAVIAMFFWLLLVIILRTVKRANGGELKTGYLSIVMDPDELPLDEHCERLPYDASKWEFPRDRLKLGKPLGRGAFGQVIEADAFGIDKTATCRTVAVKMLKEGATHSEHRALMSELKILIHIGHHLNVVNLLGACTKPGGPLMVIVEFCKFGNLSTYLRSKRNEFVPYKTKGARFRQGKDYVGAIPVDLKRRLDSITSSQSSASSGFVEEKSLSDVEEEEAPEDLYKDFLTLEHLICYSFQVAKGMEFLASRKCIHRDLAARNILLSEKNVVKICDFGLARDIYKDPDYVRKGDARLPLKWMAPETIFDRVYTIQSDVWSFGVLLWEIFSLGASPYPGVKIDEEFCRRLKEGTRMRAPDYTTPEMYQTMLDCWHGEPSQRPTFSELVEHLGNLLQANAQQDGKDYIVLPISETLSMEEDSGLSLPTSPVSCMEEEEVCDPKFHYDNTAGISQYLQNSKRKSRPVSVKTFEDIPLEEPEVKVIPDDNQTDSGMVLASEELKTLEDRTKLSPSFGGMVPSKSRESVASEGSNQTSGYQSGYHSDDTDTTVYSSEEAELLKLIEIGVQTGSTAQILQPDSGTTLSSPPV

IC50 [2] | IC50 [3] | IC50 [9] | melting point | Structure (SMILES) | IC50 [1] | Bcl-2 Conc. [4] | Bcl-2 Fold [4] | IC50 [5] | Caspase 3 Conc. [6] | Caspase 3 Fold [6] | IC50 [7] | TNF-α % inhibition [8] | BAX Conc. [10] | BAX Fold [10] | also measured
3.47 µM | 6.15 µM | 4.17 µM | – | O=C(N/N=C/c1ccccc1Cl)c1ccc(NC(=O)c2cccnc2)cc1 [Compound 11f, (E)-N-(4-(2-(2-Chlorobenzylidene)hydrazine-1-carbonyl)phenyl)-nicotinamide] | 62.4 µM | 2.25 pg/mL | 0.42 fold | 3.47 to 7.31 µM | 292.11 pg/mL | 5.68 fold | 7.05 µM | 60% | 142.5 pg/mL | 6.60 fold | –
4.8 µM | 5.73 µM | 6.12 µM | – | CN(C)c1ccc(/C=N/NC(=O)c2ccc(NC(=O)c3cccnc3)cc2)cc1 [Compound 11g, (E)-N-(4-(2-(4-(Dimethylamino)benzylidene)hydrazine-1-carbonyl)phenyl)-nicotinamide] | 70.1 µM | 2.55 pg/mL | 0.48 fold | 3.47 to 7.31 µM | 324.36 pg/mL | 6.31 fold | 6.42 µM | 47% | 160.2 pg/mL | 7.42 fold | –
5.72 µM | 6.29 µM | 8.09 µM | – | O=C(N/N=C/c1ccc([N+](=O)[O-])cc1)c1ccc(NC(=O)c2cccnc2)cc1 [Compound 11c, (E)-N-(4-(2-(4-Nitrobenzylidene)hydrazine-1-carbonyl)phenyl)-nicotinamide] | 52.3 µM | 2.81 pg/mL | 0.52 fold | 3.47 to 7.31 µM | 271.41 pg/mL | 5.28 fold | 7.31 µM | 31% | 133.2 pg/mL | 6.17 fold | –
22.7 µM | 19.2 µM | – | 217 to 219 °C | Cc1cccc(NC(=O)c2ccc(NC(=O)c3cccnc3)cc2)c1 [Compound 7h, N-(4-(m-Tolylcarbamoyl)phenyl)nicotinamide] | 95.1 µM | – | – | 14.1 to 31.4 µM | – | – | 14.9 µM | – | – | – | –

Second part, the molecule before the results:

Structure (SMILES) | IC50 [2] | IC50 [3] | IC50 [9] | melting point | IC50 [1] | Bcl-2 Conc. [4] | Bcl-2 Fold [4] | IC50 [5] | Caspase 3 Conc. [6] | Caspase 3 Fold [6] | IC50 [7] | TNF-α % inhibition [8] | BAX Conc. [10] | BAX Fold [10] | also measured
COc1cccc(NC(=O)c2ccc(NC(=O)c3cccnc3)cc2)c1 [Compound 7a, N-(4-((3-Methoxyphenyl)carbamoyl)phenyl)nicotinamide] | 1.46 µM | 1.37 µM | 2.17 µM | – | 60.8 µM | 1.25 pg/mL | 0.23 fold | – | 401.15 pg/mL | – | 1.05 µM | 87% | 261.4 pg/mL | 12.11 fold | effect on VSMC proliferation [11]: potent inhibitory effect; also recorded: significant antiproliferative effect at all concentrations tested; effect on VEGFR-2 protein expression [12]: downregulated the expression of VEGFR-2 protein; early apoptotic population [13]: 7.41%; late apoptotic population [13]: 6.80%; accumulation of cells at the G2-M phase [14]: 46.74%; apoptotic cells at the pre-G1 phase [14]: 10.5%; percentage of cells at G1 [14]: 30.15%; percentage of cells at the S phase [14]: 22.11%
Cc1ccc(NC(=O)c2ccc(NC(=O)c3cccnc3)cc2)c(C)c1 [Compound 7k, N-(4-((2,4-Dimethylphenyl)carbamoyl)phenyl)nicotinamide] | 18.7 µM | 17.1 µM | – | 254 to 256 °C | 75.3 µM | – | – | 14.1 to 31.4 µM | – | – | 20.1 µM | – | – | – | –

— publication PMC8568530, “Inhibition of Vascular Smooth Muscle and Cancer Cell Proliferation by New VEGFR Inhibitors and Their Immunomodulator Effect: Design, Synthesis, and Biological Evaluation” (Oxidative Medicine and Cellular Longevity, 2021)
